Data as given in US7485327B2, “Composition comprising Melissa leaf extract for anti-angiogenic and matrix metalloproteinase inhibitory activity” (AngioLab, Inc., priority 2001, dated 2009).

Tested on: B16BL6 cells
Assay: Cancer metastasis: B16BL6 melanoma colonies in lung
Type: in vivo, C57BL/6 male mouse
Experimental: B16BL6 cells (5×10^4) were injected into C57BL/6 male mouse of 6 to 7 weeks old through the tail vein. After that, 0.2 ml of water or drug combinations was daily given to mice by oral administration for 3 weeks. Three weeks after injection, the mice were sacrificed and the number of tumor colonies on the surface of lungs was counted under microscope. The average number of melanoma colonies in lungs from mice of treated group was less than that from control mice.

**Q.** Which results are given for Clc1ccccc1CN1CCc2sccc2C1 [Ticlopidine, ticlopidine]?
**A.** Inhibition (%) of metastasis (oral daily for 3 weeks): 38%; Colonies in lung (oral daily for 3 weeks after tail vein injection of B16BL6 cells): 83 ± 20
